# Earlier results in PMC7327225 (Hepatology Communications, 2020).
# Test system: β1‐containing AMPK trimers
# Conditions: explains failure to activate AMPK in muscle
structure (smiles),measurement,value
O=C(O)c1c[nH]c2cc(Cl)c(-c3ccc(C4(O)CCC4)cc3)cc12 [PF‐06409577],AMPK isoform selectivity,selectivity toward β1‐containing AMPK trimers
